ChEMBL document CHEMBL1148325 (J Med Chem, 2004)

Assay: In vivo reduction in blood pressure relative to maximum achieved with the K-ATP standard P1075 in spontaneously hypertensive rat

**Q.** With `O=C1OCC2=C1C(c1ccc(F)c(Br)c1)C1=C(O)OCC1=N2` (stereo not drawn) as the compound, how does the ED50 read?
**A.** 398 nM

**Q.** Which ED50 does the source give for `O=C1CCCC2=C1[C@H](c1ccc(F)c(Br)c1)C1=C(CCS1(=O)=O)N2` here?
**A.** 427 nM

**Q.** For `O=C1CCCC2=C1[C@@H](c1ccc(F)c(Br)c1)C1=C(O)OCC1=N2`, which ED50 is on record?
**A.** 2450 nM
